According to patent US9593105B2, “Cyclic amines” (H. Lundbeck A/S, priority 2012, dated 2017):

Target: P2X7 receptor (Homo sapiens (Human), UniProt Q99572)
Test: P2X7 FLIPR assay (BzATP-stimulated, Fluo-4 fluorescence) in stably transfected 293 HEK cells
Format: cell-based
Protocol: This example illustrates representative assays for use in evaluating the test compounds for antagonist activity. Compounds of the present invention were tested in vitro for their ability to act as antagonists to the P2X7 receptor.
Cells were plated to cell density of approximately 15,000 cells/well in 384-well assay plates (50 μl/well) with 1.5% low serum media (DMEM, 1.5% BCS, 1% L-glut (2 mM), 1% P/S).
Cells were plated to cell density of approximately 15,000 cells/well in 384-well assay plates (50 μl/well) with 1.5% low serum media (DMEM, 1.5% FBS, 1% L-glut (2 mM), 10 mM HEPES, 1% P/S). Cells were plated 24 hours prior to assay. Cells expressing human, rat or mouse P2X7 receptor were assayed in the following manner.
Fluo-4 NW dye mix (Molecular Probes, Inc., Eugene, Oreg., USA) was prepared in buffer (see manufacturer's instructions). Cell plates were removed from the 37° C. incubator, the media discarded and then 30 μL of dye was added to each well. Plates were placed in the 37° C., non-CO2 incubator for 30 minutes and then room temperature for 30 minutes.
Compound mixtures (A) were added to assay plates containing cells and placed at room temperature for 30 minutes, then BzATP (B) was added. Fluorescence was read using the Tetra FLIPR® (Molecular Devices, Inc., Sunnyvale, Calif., USA) and IC50 values were calculated by standard methods to determine antagonist activity.

Sequence of P2X7 receptor (Q99572 whole entry): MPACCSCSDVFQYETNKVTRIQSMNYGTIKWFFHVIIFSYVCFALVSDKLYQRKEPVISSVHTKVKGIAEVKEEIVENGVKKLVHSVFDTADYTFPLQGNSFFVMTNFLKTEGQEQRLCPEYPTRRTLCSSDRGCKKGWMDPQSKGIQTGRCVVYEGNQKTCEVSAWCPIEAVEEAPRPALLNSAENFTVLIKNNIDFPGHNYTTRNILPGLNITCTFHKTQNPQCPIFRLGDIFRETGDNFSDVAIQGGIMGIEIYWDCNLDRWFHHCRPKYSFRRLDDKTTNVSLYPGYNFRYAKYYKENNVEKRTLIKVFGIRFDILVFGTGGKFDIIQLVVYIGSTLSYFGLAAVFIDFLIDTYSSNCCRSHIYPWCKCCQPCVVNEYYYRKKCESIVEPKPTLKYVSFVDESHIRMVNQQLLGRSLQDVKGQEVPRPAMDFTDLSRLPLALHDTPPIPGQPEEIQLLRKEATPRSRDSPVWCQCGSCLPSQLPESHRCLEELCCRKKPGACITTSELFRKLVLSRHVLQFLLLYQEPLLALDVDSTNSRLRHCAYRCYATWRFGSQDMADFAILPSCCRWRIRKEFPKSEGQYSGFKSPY

Compound | IC50 [nM]
COc1ccc(C(=O)NCC(c2cnc(C(F)(F)F)nc2)N2CCC(F)(F)CC2)c(Cl)c1 (single isomer, unassigned; (+)) [(+)2-chloro-N-[2-(4,4-difluoro-1-piperidyl)-2-[2-(trifluorom] [(+)2-chloro-4-methoxy-N-(2-(4,4-difluoropiperidin-1-yl)-2-(2-(trifluoromethyl)pyrimidin-5-yl)ethyl)benzamide] | 4.3
O=C(NCC(c1cnc(C2CC2)nc1)N1CCC(F)(F)CC1)c1c(Cl)cccc1Cl (single isomer, unassigned; (-)) [(−)2,6-dichloro-N-[2-(2-cyclopropylpyrimidin-5-yl)-2-(4,4-di] [(−)2,6-dichloro-N-(2-(2-cyclopropylpyrimidin-5-yl)-2-(4,4-difluoropiperidin-1-yl)ethyl)benzamide] | 5.8
